Values quoted from earlier work in US20220000797A1, “CLEAR PROPOFOL INJECTION AND PREPARATION METHOD THEREFOR” ((BIKA BIOTECHNOLOGY (GUANGZHOU) CO., LTD), priority 2018, published 2022).
Like-named read-outs stand apart in the source and are kept apart here.

O=C([O-])O.[Na+] [sodium bicarbonate]
injection pain (final concentration of sodium bicarbonate approaches 1.4%): can reduce injection pain | injection pain (low concentration of sodium bicarbonate (0.25%)): cannot reduce injection pain
